Consider one molecule from patent US12569463B2, “Method for treating diabetes” (Olatec Therapeutics, Inc., priority 2020, dated 2026).

This experiment can be described thus: Fasting glucose in diabetic subjects of the clinical study of oral dapansutrile capsules in NYHA II-III systolic heart failure. It counts as in vivo, human.
Setting [1] is: Day 28, 1000 mg per day oral, N = 4.
The mark [2] stands for this setting: Day 28, 2000 mg per day oral, N = 4.
Where [3] appears, read: Day 28, all dapansutrile subjects pooled, N = 14.

For `CS(=O)(=O)CCC#N` [Dapansutrile, 3-methanesulfonylpropionitrile], under “500 mg, 1000 mg, 2000 mg per day”, the “dose response of fasting glucose change (in words)” value is given as “trend of dose response”. In addition, the “mean fast glucose level decrease from the baseline level” value (2000 mg treatment, Day 14) amounted to 43.5 mg/dL. For the same molecule, the “Fasting Glucose Level, Change from Baseline, Mean” value by setting is: (Day 14 (last day of treatment), 500 mg daily oral, diabetic patients N = 6) -20.0 mg/dL; (Day 14, 1000 mg per day (500 mg twice a day) oral, diabetic patients N = 4) -16.5 mg/dL; (Day 14, 2000 mg per day (500 mg 4 times a day) oral, diabetic patients N = 4) -43.5 mg/dL; (Day 14, all dapansutrile subjects pooled (500-2000 mg), N = 14) -25.7 mg/dL; (Day 28 (14 days after last treatment), 500 mg daily oral, N = 6) 25.8 mg/dL; under setting [1], 7.3 mg/dL. In addition, the “Fasting Glucose Level, Change from Baseline, Mean” value was -18.0 mg/dL under setting [2] and 8.0 mg/dL under setting [3]. The “Fasting Glucose Level, Change from Baseline, Median” value was -18.5 mg/dL (Day 14, 500 mg daily oral, N = 6); -16.5 mg/dL (Day 14, 1000 mg per day oral, N = 4); -47.5 mg/dL (Day 14, 2000 mg per day oral, N = 4); -32.5 mg/dL (Day 14, all dapansutrile subjects pooled, N = 14); -1.5 mg/dL (Day 28, 500 mg daily oral, N = 6); -7.0 mg/dL under setting [1]. Moreover, the “Fasting Glucose Level, Change from Baseline, Median” value runs as follows: under setting [2], -21.5 mg/dL; under setting [3], -8.0 mg/dL. Besides, for the setting “Day 14, all dapansutrile-treated subjects, p value of 0.029”, the “decrease of glucose level from the baseline level (in words)” value is “statistically significant decrease”. Further, the “drug effect on fasting glucose (in words)” value (Day 28, 14 days after the last treatment) is on record as “the drug effect was gone”.
